Reference: publication PMC3748009, “Novel Small-Molecule AMP-Activated Protein Kinase Allosteric Activator with Beneficial Effects in db/db Mice” (PLoS ONE, 2013)

What was measured:
C57BKS db/db mice = test: 5-week chronic study in db/db mice; format: in vivo, mouse
Excerpt: db/db (Jackson Laboratory, BarHarbor, ME, USA) mice were bred at the Shanghai Institute of Materia Medica (Chinese Academy of Sciences, Shanghai, People's Republic of China).The animals were maintained under a 12 hr light-dark cycle with free access to water and food. Animal experiments were approved by the Animal Care and Use Committee, Shanghai Institute of Materia Medica. At 8 weeks of age, male db/db mice were randomly assigned to the various treatment groups by body weight and glucose levels (n = 6-8). The treatment groups for the 5-week chronic study were as follows: vehicle (0.5% methylcellulose), ZLN024 (15 mg/kg) and metformin (250 mg/kg). The treatments were orally administered once daily. The body weights and food intake were measured daily. After 5 weeks of treatment, the mice were killed after a final dose, and the tissues were collected for further analysis. This assay was described previously. For details on primer sequences, see Legend for Table S1. These assays were described previously, [25].

AMPK α1β1γ1 [1] = molecular target: T1, AMPK α1β1γ1 (Homo sapiens, UniProt P54619+Q13131+Q9Y478); test: PP2Cα-catalyzed dephosphorylation of AMPK Thr-172; format: biochemical; conditions: 5 µmol/l ZLN024
Protocol: (§1) The dephosphorylation of AMPK was performed as described previously, [24].
Target sequence in this assay (Q13131 10-559 limits assumed): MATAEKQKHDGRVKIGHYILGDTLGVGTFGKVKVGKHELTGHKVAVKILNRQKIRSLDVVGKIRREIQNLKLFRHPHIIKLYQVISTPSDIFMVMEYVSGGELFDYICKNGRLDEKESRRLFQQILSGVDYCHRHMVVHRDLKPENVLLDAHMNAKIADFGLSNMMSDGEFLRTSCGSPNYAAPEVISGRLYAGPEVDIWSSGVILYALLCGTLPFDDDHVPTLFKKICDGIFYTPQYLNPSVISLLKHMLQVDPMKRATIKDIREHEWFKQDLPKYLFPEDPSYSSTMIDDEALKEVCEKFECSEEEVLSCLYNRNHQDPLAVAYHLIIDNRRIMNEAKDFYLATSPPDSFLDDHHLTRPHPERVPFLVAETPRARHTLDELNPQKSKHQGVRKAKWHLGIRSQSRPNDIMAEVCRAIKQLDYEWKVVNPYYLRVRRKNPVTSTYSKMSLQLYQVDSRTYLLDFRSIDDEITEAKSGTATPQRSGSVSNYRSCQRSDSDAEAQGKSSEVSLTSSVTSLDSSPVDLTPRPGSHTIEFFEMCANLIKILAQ
Target sequence in this assay (Q9Y478 whole entry): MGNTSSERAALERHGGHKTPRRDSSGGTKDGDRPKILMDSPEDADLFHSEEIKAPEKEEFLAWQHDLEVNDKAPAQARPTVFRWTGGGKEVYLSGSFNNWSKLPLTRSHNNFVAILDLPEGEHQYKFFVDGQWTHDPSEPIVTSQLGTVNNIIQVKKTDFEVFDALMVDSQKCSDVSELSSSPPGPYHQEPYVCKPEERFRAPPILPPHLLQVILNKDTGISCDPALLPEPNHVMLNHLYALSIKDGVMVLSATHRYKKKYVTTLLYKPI
Target sequence in this assay (P54619 whole entry): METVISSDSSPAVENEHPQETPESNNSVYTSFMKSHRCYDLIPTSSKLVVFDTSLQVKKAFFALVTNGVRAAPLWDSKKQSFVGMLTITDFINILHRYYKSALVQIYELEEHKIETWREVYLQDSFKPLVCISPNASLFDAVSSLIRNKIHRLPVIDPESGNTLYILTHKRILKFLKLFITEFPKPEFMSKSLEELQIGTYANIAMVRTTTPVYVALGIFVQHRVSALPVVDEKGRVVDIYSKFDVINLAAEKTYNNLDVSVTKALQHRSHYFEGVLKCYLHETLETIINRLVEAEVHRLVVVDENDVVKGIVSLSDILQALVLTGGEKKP

AMPK α2β1γ1 = AMPK α2β1γ1 (Homo sapiens, UniProt P54619+P54646+Q9Y478); test: PP2Cα-catalyzed dephosphorylation of AMPK Thr-172; format: biochemical; conditions: 5 µmol/l ZLN024
Sequence of AMPK α2β1γ1 (P54646 whole entry): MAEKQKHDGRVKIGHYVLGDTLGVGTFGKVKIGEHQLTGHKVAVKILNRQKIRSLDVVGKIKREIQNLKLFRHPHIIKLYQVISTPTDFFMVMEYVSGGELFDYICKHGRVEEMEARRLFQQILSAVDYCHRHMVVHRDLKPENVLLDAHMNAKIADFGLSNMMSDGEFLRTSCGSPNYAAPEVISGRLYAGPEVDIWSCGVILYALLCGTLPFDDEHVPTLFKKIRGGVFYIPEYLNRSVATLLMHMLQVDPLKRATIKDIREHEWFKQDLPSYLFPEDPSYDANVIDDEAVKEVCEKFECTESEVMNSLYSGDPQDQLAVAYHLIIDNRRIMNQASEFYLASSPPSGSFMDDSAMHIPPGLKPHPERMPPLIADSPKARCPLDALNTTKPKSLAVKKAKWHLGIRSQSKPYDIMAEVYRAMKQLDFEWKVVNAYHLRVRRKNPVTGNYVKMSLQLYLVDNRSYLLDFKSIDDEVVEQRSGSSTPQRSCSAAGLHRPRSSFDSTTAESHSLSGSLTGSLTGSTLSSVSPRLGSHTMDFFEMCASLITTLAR
Sequence of AMPK α2β1γ1 (Q9Y478 whole entry): as the sequence (Q9Y478 whole entry) above
Sequence of AMPK α2β1γ1 (P54619 whole entry): as the sequence (P54619 whole entry) above
Protocol: as §1

L6 myotubes [2] = test: Adenine nucleotide measurement (ADP/ATP ratio) in L6 myotubes; format: cell-based; conditions: various concentrations, 3 hr, vs DMSO
Excerpt: (§2) These assays were described previously, [25].

rat primary hepatocytes [3] = test: ADP/ATP ratio in rat primary hepatocytes; format: cell-based; conditions: 3 hr
Excerpt: as §2

AMPK α1β1γ1 [4] = molecular target: T1, AMPK α1β1γ1; test: Scintillation proximity assay (SPA), AMPK activation; format: biochemical; set-up: made in house
Protocol: (§3) Before the SPA assay, 200 nmol/l recombinant AMPK protein (α1β1γ1, α2β1γ1, α1β2γ1, α2β2γ1, α1(1–394), α1(1–335), α1(1–312)) was constructed, expressed, purified and fully phosphorylated as described previously. The SPA reactions were performed in 96-well plates in a final volume of 50 µl containing 20 mmol/l Tris-HCl, pH 7.5, 5 mmol/l MgCl2, 1 mmol/l DTT, 2 µmol/l biotin-SAMS, 2 µmol/l ATP and 7.4×10^3 Bq/well [γ-^33P]ATP. The reactions were initiated by the addition of 50 nmol/l recombinant AMPK protein to the reaction solutions, followed by incubation at 30°C for 2 hr. The reactions were then terminated by the addition of 40 µl of stop solution containing 80 µg streptavidin-coated SPA beads per well, 50 mmol/l EDTA and 0.1% Triton X-100 in PBS, pH 7.5, followed by incubation for 1 hr. Finally, 160 µl of suspension solution containing 2.4 mol/l CsCl, 50 mmol/l EDTA and 0.1% Triton X-100 in PBS, pH 7.5, was added to the reaction solution to suspend the SPA beads completely. The SPA signals were measured in a Wallac Microbeta plate counter (PerkinElmer, Waltham, MA, USA) 30 min later.
Target sequence in this assay (Q13131 10-559 limits assumed): as the sequence (Q13131 10-559 limits assumed) above
Target sequence in this assay (Q9Y478 whole entry partner): as the sequence (Q9Y478 whole entry) above
Target sequence in this assay (P54619 whole entry partner): as the sequence (P54619 whole entry) above

recombinant AMPK α1β1γ1 = recombinant AMPK α1β1γ1 (Homo sapiens, UniProt Q13131); test: as above; format: biochemical; set-up: made in house
Sequence of recombinant AMPK α1β1γ1 (Q13131 10-559 limits assumed): as the sequence (Q13131 10-559 limits assumed) above
Sequence of recombinant AMPK α1β1γ1 (Q9Y478 whole entry partner): as the sequence (Q9Y478 whole entry) above
Sequence of recombinant AMPK α1β1γ1 (P54619 whole entry partner): as the sequence (P54619 whole entry) above
Protocol: as §3

L6 myotubes [5] = test: AMPK and ACC phosphorylation (Western blot) in L6 myotubes; format: cell-based
Excerpt: as §2

L6 myotubes [6] = test: Glucose uptake in L6 myotubes; format: cell-based; conditions: 3 hr, concentration-dependent
Excerpt: as §2

L6 myotubes [7] = test: Mitochondrial membrane potential in L6 myotubes; format: cell-based; conditions: various concentrations, 3 hr, vs DMSO
Excerpt: as §2

[8] = molecular target: T2, recombinant human AMPK α1β2γ1 (Homo sapiens, UniProt O43741+P54619+Q13131); test: Scintillation proximity assay (SPA), AMPK activation; format: biochemical
T2 construct: made in house
T2 sequence (Q13131 10-559 limits assumed): as the sequence (Q13131 10-559 limits assumed) above
T2 sequence (O43741 whole entry partner): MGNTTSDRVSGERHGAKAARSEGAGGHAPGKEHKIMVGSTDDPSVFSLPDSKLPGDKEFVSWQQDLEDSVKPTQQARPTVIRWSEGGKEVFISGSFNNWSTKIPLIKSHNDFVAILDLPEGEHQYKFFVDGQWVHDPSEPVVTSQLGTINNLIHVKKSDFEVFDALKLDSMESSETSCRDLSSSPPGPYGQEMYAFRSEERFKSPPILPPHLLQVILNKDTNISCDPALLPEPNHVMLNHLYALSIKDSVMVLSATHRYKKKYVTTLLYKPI
T2 sequence (P54619 whole entry partner): as the sequence (P54619 whole entry) above
Protocol: as §3

[9] = molecular target: T3, recombinant human AMPK α2β1γ1 (Homo sapiens, UniProt P54619+P54646); test: as above; format: biochemical
T3 construct: made in house
T3 sequence (P54646 whole entry): as the sequence (P54646 whole entry) above
T3 sequence (Q9Y478 whole entry partner): as the sequence (Q9Y478 whole entry) above
T3 sequence (P54619 whole entry): as the sequence (P54619 whole entry) above
Protocol: as §3

[10] = molecular target: T4, recombinant human AMPK α2β2γ1 (Homo sapiens, UniProt P54646); test: as above; format: biochemical
T4 construct: made in house
T4 sequence (P54646 whole entry): as the sequence (P54646 whole entry) above
T4 sequence (O43741 whole entry partner): as the sequence (O43741 whole entry partner) above
T4 sequence (P54619 whole entry partner): as the sequence (P54619 whole entry) above
Protocol: as §3

[11] = molecular target: T5, recombinant human AMPK α1β2γ1 (Homo sapiens, UniProt Q13131); test: as above; format: biochemical
T5 construct: made in house
T5 sequence (Q13131 10-559 limits assumed): as the sequence (Q13131 10-559 limits assumed) above
T5 sequence (O43741 whole entry partner): as the sequence (O43741 whole entry partner) above
T5 sequence (P54619 whole entry partner): as the sequence (P54619 whole entry) above
Protocol: as §3

[12] = molecular target: T6, recombinant human AMPK α2β2γ1 (Homo sapiens, UniProt O43741+P54619+P54646); test: as above; format: biochemical
T6 construct: made in house
T6 sequence (P54646 whole entry): as the sequence (P54646 whole entry) above
T6 sequence (O43741 whole entry partner): as the sequence (O43741 whole entry partner) above
T6 sequence (P54619 whole entry partner): as the sequence (P54619 whole entry) above
Protocol: as §3

AMPK α1(1–394) = AMPK α1(1–394) (Homo sapiens, UniProt Q13131); test: SPA, inactive α1 subunit truncation; format: biochemical; set-up: α1(1–394), α1(1–335), α1(1–312); made in house
Sequence of AMPK α1(1–394) (Q13131 10-403): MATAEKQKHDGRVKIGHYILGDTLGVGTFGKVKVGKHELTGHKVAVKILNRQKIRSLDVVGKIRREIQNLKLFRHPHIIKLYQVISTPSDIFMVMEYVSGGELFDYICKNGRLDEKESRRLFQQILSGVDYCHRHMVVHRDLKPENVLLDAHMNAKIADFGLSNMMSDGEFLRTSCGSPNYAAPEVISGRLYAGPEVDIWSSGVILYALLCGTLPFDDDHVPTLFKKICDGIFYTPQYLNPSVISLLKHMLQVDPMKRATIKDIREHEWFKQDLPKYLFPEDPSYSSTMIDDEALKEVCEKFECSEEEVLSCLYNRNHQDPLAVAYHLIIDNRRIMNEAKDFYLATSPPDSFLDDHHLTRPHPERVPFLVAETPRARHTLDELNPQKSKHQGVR
Protocol: as §3

rat primary hepatocytes [13] = test: Glucose production (output) in rat primary hepatocytes; format: cell-based; conditions: 5 hr, concentration-dependent
Excerpt: as §2

L6 myotubes [14] = test: Fatty acid (palmitate) oxidation in L6 myotubes; format: cell-based; conditions: 4 hr treatment
Protocol: The assay was initiated by adding [9,10-^3H(N)]-palmitic acid (PerkinElmer, Waltham, MA, USA) to a final concentration of 250 µmol/l and 5.55×10^4 Bq per well in DMEM. After incubation with the compound for 4 hr in differentiated L6 myotubes, sample from each well was added to charcoal slurry for centrifugation and then the radioactivity was measured.

rat primary hepatocytes [15] = test: Gene expression (real-time PCR) in rat primary hepatocytes; format: cell-based
Excerpt: This assay was described previously. For details on primer sequences, see Legend for Table S1.

[16] = ZLN024 15 mg/kg/day by gavage, 5 weeks
[17] = primary hepatocytes, 21 hr incubation

For `Cc1ccc(OCCSc2ncccn2)c(Br)c1` [ZLN024], the “ACC phosphorylation in abdominal muscle and liver tissue” value (C57BKS db/db mice; 15 mg/kg/day, 5 weeks) was “increased”, the “AMPK phosphorylation in abdominal muscle and liver tissue” value (C57BKS db/db mice; 15 mg/kg/day, 5 weeks) was “not affected” and the “body weight compared with the vehicle group” value (C57BKS db/db mice; [16]) was “no significant alteration”. The “food intake compared with the vehicle group” value (C57BKS db/db mice; [16]) was “no significant alteration”, the “reduction of fasting blood glucose” value (C57BKS db/db mice; ZLN024 15 mg/kg/day, 4 weeks, fasted 6 hr, not significant with ANOVA) was 15% and the “abdominal muscle expression of fatty acid oxidation genes CPT-1, MCAD and LCAD” value (C57BKS db/db mice; ZLN024 15 mg/kg/day, 5 weeks) was “significantly upregulated”. For the same molecule, the “abdominal muscle expression of mitochondrial biogenesis genes PGC-1α, cyto-c and ATPase” value (C57BKS db/db mice; ZLN024 15 mg/kg/day, 5 weeks) was “upregulated”, the “decrease of liver total cholesterol levels” value (C57BKS db/db mice; ZLN024 15 mg/kg/day, 5 weeks) was 20% and the “liver expression of PEPCK” value (C57BKS db/db mice; ZLN024 15 mg/kg/day, 5 weeks) was “remained unchanged”. For the same molecule, the “liver expression of anabolic genes FAS, mtGPAT and G6Pase” value (C57BKS db/db mice; ZLN024 15 mg/kg/day, 5 weeks) was “significantly reduced”, the “liver expression of catabolic genes CPT1, LCAD, PDK4 and AOX” value (C57BKS db/db mice; ZLN024 15 mg/kg/day, 5 weeks) was “mildly increased” and the “liver/body weight reduction vs vehicle” value (C57BKS db/db mice; ZLN024 15 mg/kg/day, 5 weeks) was 9%. For the same molecule, the “reduction of liver triacylglycerol levels” value (C57BKS db/db mice; ZLN024 15 mg/kg/day, 5 weeks) was “approximately 45%”, the “liver/body weight (wt/wt)” value (C57BKS db/db mice; ZLN024 15 mg/kg/day, 5 weeks (vehicle 5.3%)) was 4.8% and the “reduction in glucose tolerance AUC” value (C57BKS db/db mice; ZLN024 15 mg/kg/day, after 4 weeks, i.p. glucose load 1.5 g/kg) was “approximately 15%”. For the same molecule, the “protection of AMPK α1β1γ1 against dephosphorylation by PP2Cα” value (AMPK α1β1γ1 [1]) was “provided protection against dephosphorylation”, the “protection of AMPK α2β1γ1 against dephosphorylation by PP2Cα” value (AMPK α2β1γ1) was “provided protection against dephosphorylation” and the ADP/ATP ratio (L6 myotubes [2]) was “not affected”. The ADP/ATP ratio (rat primary hepatocytes [3]) was “not affected”, the EC50 (AMPK α1β1γ1 [4]) was 420 nM and the “activation of α1β1γ1 activity” value (recombinant AMPK α1β1γ1) was 1.5 fold. The “phosphorylation of AMPK and ACC” value (L6 myotubes [5]; 3 hr incubation, concentration-dependent) was “stimulated”, the “time to maximal effect on AMPK and ACC phosphorylation” value (L6 myotubes [5]; ZLN024 20 µmol/l) was at most 30 min and the “time to start of increase of AMPK and ACC phosphorylation” value (L6 myotubes [5]; ZLN024 20 µmol/l) was at most 15 min. The glucose uptake (L6 myotubes [6]) was “stimulated”, the “mitochondrial membrane potential (MMP)” value (L6 myotubes [7]) was “not affected” and the EC50 [8] was 1100 nM. For the same molecule, the EC50 ([9]; SPA) was 950 nM, the “activation of α2β1γ1 activity” value ([9]; SPA) was 1.7 fold and the “additional activation of AMPK α2β1γ1” value ([9]; ZLN024 increased to 10 µmol/l in the presence of saturating AMP (12.5 µmol/l)) was 1.3 fold. The “activation of α2β2γ1 activity” value [10] was 1.6 fold, the “activation of α1β2γ1 activity” value [11] was 1.7 fold and the EC50 [12] was 130 nM. The “maximal activation of α1(1–394)” value (AMPK α1(1–394)) was 2.3 fold, the EC50 (AMPK α1(1–394); read-out: EC50, activation of α1(1–394)) was 920 nM and the glucose production (rat primary hepatocytes [13]) was “obviously repressed”. For the same molecule, the “stimulation of palmitate oxidation” value (L6 myotubes [14]) was 40%, the “mRNA level of G6Pase” value (rat primary hepatocytes [15]; [17]) was “decreased significantly” and the “mRNA level of PEPCK” value (rat primary hepatocytes [15]; [17]) was “decreased significantly”. For the same molecule, the “gene expression of fatty acid synthase (FAS)” value (rat primary hepatocytes [15]; rat primary hepatocytes, 21 hr) was “significantly decreased”.
